Assay results from patent US6627630B1, “Condensed pyridazine derivatives, their production and use” (Takeda Chemical Industries, Ltd., priority 1998, dated 2003).

melting point [°C] | SMILES
118 to 121 | CC(C)(C(=O)O)c1nc2ccc(OCCCN3CCN(C(c4ccccc4)c4ccccc4)CC3)nn2c1Cl [Example 88A, 2-[3-Chloro-6-[3-[4-(diphenylmethyl)-1-piperazinyl]propoxy]imidazo[1,2-b]pyridazin-2-yl]-2-methylpropionic Acid]
122 | Cc1cc2nc(C(C)(C)C(=O)O)cn2nc1OCCCN1CCC(OC(c2ccccc2)c2ccccc2)CC1 [Example 89A, 2-[6-[3-[4-(Diphenylmethoxy)piperidino]propoxy]-7-methylimidazo[1,2-b]pyridazin-2-yl]-2-methylpropionic Acid]
105 to 106 | CCOC(=O)C(C)(C)c1cn2nc(CCCCN3CCN(C(c4ccccc4)c4ccccc4)CC3)ccc2n1 [Example 94A, Ethyl 2-[6-[4-[4-(Diphenylmethyl)-1-piperazinyl]butyl]imidazo[1,2-b]pyridazin-2-yl]-2-methylpropionate]
108 to 110 | CC(C)(C(=O)O)c1cn2nc(CCCCN3CCN(C(c4ccccc4)c4ccccc4)CC3)ccc2n1 [Example 95A, 2-[6-[4-[4-(Diphenylmethyl)-1-piperazinyl]butyl]imidazo[1,2-b]pyridazin-2-yl]-2-methylpropionic Acid]
195 to 205 | CC(C)(C(=O)O)c1cn2nc(CCCN3CCC(OC(c4ccccc4)c4ccccc4)CC3)ccc2n1 [Example 102A, 2-[6-[3-[4-(Diphenylmethoxy)piperidino]propyl]imidazo[1,2-b]pyridazin-2-yl]-2-methylpropionic Acid]
176 to 178 | CC(C)(C(=O)O)c1cn2nc(CCCN3CCN(C(c4ccccc4)c4ccccc4)CC3)ccc2n1 [Example 104A, 2-[6-[3-[4-(Diphenylmethyl)-1-piperazinyl]propyl]imidazo[1,2-b]pyridazin-2-yl]-2-methylpropionic Acid]

Second part, the compound before the results:

SMILES | melting point [°C]
O=C(O)C1(c2cn3nc(NCCCN4CCC(OC(c5ccccc5)c5ccccc5)CC4)ccc3n2)CC1 [Example 100A, 1-[6-[3-[4-(Diphenylmethoxy)piperidino]propylamino]imidazo[1,2-b]pyridazin-2-yl]cyclopropanecarboxylic Acid] | 115 to 117
Cc1nc2ccc(NCCCN3CCC(OC(c4ccccc4)c4ccccc4)CC3)nn2c1C(=O)O [Example 107A, [6-[3-[4-(Diphenylmethoxy)piperidino]propylamino]-2-methylimidazo[1,2-b]pyridazin-3-yl]carboxylic Acid] | 101 to 103
CCOC(=O)C(C)(C)c1cn2nc(NCCCN3CCC(NC(c4ccccc4)c4ccccc4)CC3)ccc2n1 [Example 108A, Ethyl 2-[6-[3-[4-(Diphenylmethylamino)piperidino]propylamino]imidazo[1,2-b]pyridazin-2-yl]-2-methylpropionate] | 115 to 117
CCOC(=O)CNC(=O)c1nc2ccc(NCCCN3CCC(OC(c4ccccc4)c4ccccc4)CC3)nn2c1Cl [Example 111A, N-[3-Chloro-6-[3-[4-(diphenylmethoxy)piperidino]propylamino]imidazo[1,2-b]pyridazine-2-carbonyl]glycine Ethyl Ester] | 178 to 180
CCOC(=O)CCNC(=O)c1cn2nc(NCCCN3CCC(OC(c4ccccc4)c4ccccc4)CC3)ccc2n1 [Example 112A, N-[6-[3-[4-(Diphenylmethoxy)piperidino]propylamino]imidazo[1,2-b]pyridazine-2-carbonyl]-β-alanine Ethyl Ester] | 83 to 86
c1ccc(C(OC2CCN(CCCCCNc3ccc4ncnn4n3)CC2)c2ccccc2)cc1 [Example 114A, 6-[5-[4-(Diphenylmethoxy)piperidino]pentylamino][1,2,4]triazolo[1,5-b]pyridazine] | 96 to 98
OC(CNc1ccc2ncnn2n1)CN1CCC(OC(c2ccccc2)c2ccccc2)CC1 (stereo not shown) [Example 115A, 1-[4-(Diphenylmethoxy)piperidino]-3-[([1,2,4]triazolo[1,5-b]pyridazin-6-yl)amino]-2-propanol] | 82 to 87
